This passage reports EC50 results from patent publication US20120232073A1, “FUSED BICYCLIC PYRIMIDINE DERIVATIVES AND METHODS OF USE THEREOF” (priority 2009, published 2012).

Bounds are passed on as bounds.

The EC50 is the concentration giving half of the maximal effect. A higher EC50 goes with weaker potency.

For this assay, the target named is T1, human GPR119 (Homo sapiens, UniProt Q8TDV5).
T1 construct: expressed in transfected cells; host or cells: HEK293
T1 sequence (Q8TDV5 1-335): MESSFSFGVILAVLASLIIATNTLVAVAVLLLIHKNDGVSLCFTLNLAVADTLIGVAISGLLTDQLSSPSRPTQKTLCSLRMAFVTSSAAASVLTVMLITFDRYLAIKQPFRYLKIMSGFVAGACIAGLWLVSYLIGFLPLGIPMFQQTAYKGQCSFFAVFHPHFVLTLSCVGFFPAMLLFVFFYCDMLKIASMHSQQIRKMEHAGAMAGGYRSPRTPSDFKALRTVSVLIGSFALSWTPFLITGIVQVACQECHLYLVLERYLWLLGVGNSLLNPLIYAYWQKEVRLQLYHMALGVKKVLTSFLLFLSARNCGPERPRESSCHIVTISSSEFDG
The assay is described as follows: cAMP assay (LANCE cAMP kit), activation of GPR119. In kind it is cell-based. The note with it: HEK293 cells expressing human GPR119; increase in cAMP levels. The method, then:
The ability of illustrative compounds of the invention to activate GPR119 and stimulate increases in cAMP levels was determined using the LANCE™ cAMP kit (Perkin Elmer). HEK293 cells expressing human GPR119 were maintained in culture flasks at 37° C./5% CO2 in DMEM containing 10% fetal bovine serum, 100 U/ml Pen/Strep, and 0.5 mg/ml geneticin. The media was changed to Optimem and cells were incubated overnight at 37° C./5% CO2. The Optimem was then aspirated and the cells were removed from the flasks using room temperature Hank's balanced saline solution (HBSS). The cells were pelleted using centrifugation (1300 rpm, 7 minutes, room temperature), then resuspended in stimulation buffer (HBSS, 0.1% BSA, 5 mM HEPES, 15 μM RO-20) at 2.5×10^6 cells/mL. Alexa Fluor 647-anti cAMP antibody (1:100) was then added to the cell suspension and incubated for 30 minutes. A representative Fused Bicyclic Pyrimidine Derivative (6 μl at 2× concentration) in stimulation buffer containing 2% DMSO were then added to white 384 well Matrix plates. Cell suspension mix (6 μl) was added to each well and incubated with the Fused Bicyclic Pyrimidine Derivative for 30 minutes. A cAMP standard curve was also created in each assay according to the kit protocol. Standard concentrations of cAMP in stimulation buffer (6 μl) were added to white 384 well plates. Subsequently, 6 μl of 1:100 anti-cAMP antibody was added to each well. Following the 30 minute incubation period, 12 μl of detection mix (included in kit) was added to all wells and incubated for 2-3 hours at room temperature. Fluorescence was detected on the plates using an Envision instrument. The level of cAMP in each well is determined by extrapolation from the cAMP standard curve.
In general terms: Cyclic AMP is a second messenger, typically raised through Gs and lowered through Gi signalling.
The compound `CC1(OC(=O)N2CC3COCC(C2)C3Oc2ncnc3c2ncn3-c2ccc(C#N)cc2F)CC1` (stereo not drawn) [Compound 35] gave an EC50 of 50 to 100 nM.

The compound `Cc1c(F)ccc(-n2ccc3c(OC4C5COCC4CN(C(=O)OC(C)(C)C)C5)ncnc32)c1C#N` (stereo not drawn) [Compound 21] displayed a half-maximal effective concentration (EC50) of 50 to 100 nM.

For the compound `CC(C)(C)OC(=O)N1CC2COCC(C1)C2Oc1ncnc2c1ccn2-c1ccc(C#N)cc1F` (stereo not drawn) [Compound 1], the half-maximal effective concentration (EC50) was < 50 nM.

Consider `CC1(OC(=O)N2CC3COCC(C2)C3Oc2ncnc3c2ccn3-c2ccc(C#N)cc2F)CC1` (stereo not drawn) [Compound 5], for which the concentration giving a half-maximal response (EC50) was < 50 nM.

For the compound `CC(C)(C)OC(=O)N1CC2COCC(C1)C2Oc1ncnc2c1ccn2-c1ccc(F)cc1F` (stereo not drawn) [Compound 6], the EC50 is < 50 nM.

Regarding `CC(C)(C)OC(=O)N1CC2COCC(C1)C2Oc1ncnc2c1OCCN2c1ccc(C#N)cc1F` (stereo not drawn) [Compound 53], the EC50 lay in the range of 100 to 500 nM.

In the case of `CC(C)(C)OC(=O)N1CC2COCC(C1)C2Oc1ncnc2c1ccn2-c1ccc(C#N)cc1F` (stereo not drawn) [Compound 2], the EC50 is < 50 nM.

With `CC1(OC(=O)N2CC3COCC(C2)C3Oc2ncnc3c2CCN3c2ccc(F)cc2F)CC1` (stereo not drawn) [Compound 11], the EC50 is < 50 nM.

For `CC(C)(C)OC(=O)N1CC2COCC(C1)C2Oc1ncnc2c1CCN2c1ccc(F)cc1F` (stereo not drawn) [Compound 10], the half-maximal effective concentration (EC50) was 100 to 500 nM.

With `CC1(OC(=O)N2CC3COCC(C2)C3Oc2ncnc3c2[nH]c(=O)n3-c2ccc(C#N)cc2F)CC1` (stereo not drawn) [Compound 41], the EC50 is 500 to 1000 nM.

Regarding `CC1(OC(=O)N2CC3COCC(C2)C3Oc2ncnc3c2ncn3-c2ccc(Br)cc2F)CC1` (stereo not drawn) [Compound 47], the EC50 lay in the range of 100 to 500 nM.

Take `CC1(OC(=O)N2CC3COCC(C2)C3Oc2ncnc3c2cnn3-c2ccc(C#N)cc2F)CC1` (stereo not drawn) [Compound 36]: the EC50 is < 50 nM.

`CC1(OC(=O)N2CC3COCC(C2)C3Oc2ncnc3c2OCCN3c2ccc(C#N)cc2F)CC1` (stereo not drawn) [Compound 54] registered an EC50 of 100 to 500 nM.

The compound `Cc1cccc(-n2ccc3c(OC4C5COCC4CN(C(=O)OC4(C)CC4)C5)ncnc32)c1C#N` (stereo not drawn) [Compound 24] yielded an EC50 of 50 to 100 nM.

For the compound `Cc1c(F)ccc(-n2ccc3c(OC4C5COCC4CN(C(=O)OC(C)(C)C)C5)ncnc32)c1F` (stereo not drawn) [Compound 17], the concentration for a half-maximal effect (EC50) fell in the range of 50 to 100 nM.

Turning to `CC(C)(C)OC(=O)N1CC2COCC(C1)C2Oc1ncnc2c1ccn2-c1c(F)cc(F)cc1F` (stereo not drawn) [Compound 33], the EC50 was < 50 nM.

Regarding `CC(C)OC(=O)N1CC2COCC(C1)C2Oc1ncnc2c1OCCN2c1ccc(C#N)cc1F` (stereo not drawn) [Compound 55], the half-maximal effective concentration (EC50) fell in the range of 100 to 500 nM.

Turning to `Fc1ccc(N2CCc3c(OC4C5COCC4CN(c4ncc(Cl)cn4)C5)ncnc32)c(F)c1` (stereo not drawn) [Compound 13], the EC50 was 100 to 500 nM.

`Cc1c(F)ccc(-n2ccc3c(OC4C5COCC4CN(C(=O)OC4(C)CC4)C5)ncnc32)c1F` (stereo not drawn) [Compound 18]: the EC50 was < 50 nM.

Consider `CC(C)(C)OC(=O)N1CC2COCC(C1)C2Oc1ncnc2c1ccn2-c1c(F)cc(F)cc1F` (stereo not drawn) [Compound 32], for which the EC50 is < 50 nM.

`CC1(OC(=O)N2CC3COCC(C2)C3Oc2ncnc3c2cnn3-c2ccc(C#N)cc2F)CC1` (stereo not drawn) [Compound 37]: the 50% effective concentration (EC50) is < 50 nM.

In turn, `Cc1c(F)ccc(-n2ccc3c(OC4C5COCC4CN(C(=O)OC(C)(C)C)C5)ncnc32)c1C#N` (stereo not drawn) [Compound 20] gave a half-maximal effective concentration (EC50) of 100 to 500 nM.

For `Cc1nc2c(OC3C4COCC3CN(C(=O)OC3(C)CC3)C4)ncnc2n1-c1ccc(C#N)cc1F` (stereo not drawn) [Compound 42], the concentration giving a half-maximal response (EC50) lay within 500 to 1000 nM.

`CC1OC(C)C2CN(C(=O)OC3(C)CC3)CC1C2Oc1ncnc2c1cnn2-c1ccc(C#N)cc1F` (stereo not drawn) [Compound 39] gave an EC50 of 100 to 500 nM.

The compound `CC1(OC(=O)N2CC3COCC(C2)C3Oc2ncnc3c2nnn3-c2ccc(C#N)cc2Cl)CC1` (stereo not drawn) [Compound 52] yielded an EC50 of 50 to 100 nM.

Regarding `CC(C)(C)OC(=O)N1CC2COCC(C1)C2Oc1ncnc2c1ccn2-c1c(F)cccc1F` (stereo not drawn) [Compound 14], the EC50 was < 50 nM.

With `CC1(OC(=O)N2CC3COCC(C2)C3Oc2ncnc3c2ccn3-c2ccc(F)cc2F)CC1` (stereo not drawn) [Compound 8], the EC50 is < 50 nM.

For the compound `CC1(OC(=O)N2CC3COCC(C2)C3Oc2ncnc3c2cnn3-c2ccc(F)cc2F)CC1` (stereo not drawn) [Compound 46], the concentration giving a half-maximal response (EC50) lay within 100 to 500 nM.

Regarding `CC(C)OC(=O)N1CC2COCC(C1)C2Oc1ncnc2c1ccn2-c1ccc(C#N)cc1F` (stereo not drawn) [Compound 3], the EC50 was < 50 nM.

As to `CC(C)(C)OC(=O)N1CC2COCC(C1)C2Oc1ncnc2c1ccn2-c1ccc(F)cc1F` (stereo not drawn) [Compound 7], the concentration giving a half-maximal response (EC50) was < 50 nM.

As to `CC(C)c1noc(N2CC3COCC(C2)C3Oc2ncnc3c2ccn3-c2ccc(F)cc2F)n1` (stereo not drawn) [Compound 29], the EC50 was 100 to 500 nM.

`CC(C)(C)OC(=O)N1CC2COCC(C1)C2Oc1ncnc2c1CCN2c1ccc(F)cc1F` (stereo not drawn) [Compound 9]: the EC50 was < 50 nM.

For `CC1(OC(=O)N2CC3COCC(C2)C3Oc2ncnc3c2ncn3-c2ccc(C#N)cc2Cl)CC1` (stereo not drawn) [Compound 43], the half-maximal effective concentration (EC50) fell in the range of 100 to 500 nM.

Turning to `CC1(OC(=O)N2CC3COCC(C2)C3Oc2ncnc3c2ccn3-c2c(F)cccc2F)CC1` (stereo not drawn) [Compound 19], the half-maximal effective concentration (EC50) was < 50 nM.

For `Cn1cc(-c2ccc(-n3ncc4c(OC5C6COCC5CN(C(=O)OC5(C)CC5)C6)ncnc43)c(F)c2)cn1` (stereo not drawn) [Compound 48], the EC50 was 100 to 500 nM.

For `Fc1cnc(N2CC3COCC(C2)C3Oc2ncnc3c2ccn3-c2ccc(F)cc2F)nc1` (stereo not drawn) [Compound 12], the EC50 lay within 50 to 100 nM.

The compound `CS(=O)(=O)c1ccc(-n2cnc3c(OC4C5COCC4CN(c4ncc(Cl)cn4)C5)ncnc32)c(F)c1` (stereo not drawn) [Compound 34] yielded a half-maximal effective concentration (EC50) of 500 to 1000 nM.

With `CC1(OC(=O)N2CC3COCC(C2)C3Oc2ncnc3c2cnn3-c2ccc(-c3cscn3)cc2F)CC1` (stereo not drawn) [Compound 50], the EC50 lay in the range of 100 to 500 nM.

As for `CC(C)(C)OC(=O)N1CC2COCC(C1)C2Oc1ncnc2c1ccn2-c1ccc(S(C)(=O)=O)cc1F` (stereo not drawn) [Compound 25], the EC50 fell in the range of 100 to 500 nM.

Regarding `CC1(OC(=O)N2CC3COCC(C2)C3Oc2ncnc3c2cnn3-c2ccc(C#N)cc2Cl)CC1` (stereo not drawn) [Compound 40], the half-maximal effective concentration (EC50) was < 50 nM.

Take `Cc1c(F)ccc(-n2ccc3c(OC4C5COCC4CN(C(=O)OC4(C)CC4)C5)ncnc32)c1C#N` (stereo not drawn) [Compound 22]: the half-maximal effective concentration (EC50) fell in the range of 50 to 100 nM.

Consider `CS(=O)(=O)c1ccc(-n2ccc3c(OC4C5COCC4CN(c4ncc(Cl)cn4)C5)ncnc32)c(F)c1` (stereo not drawn) [Compound 27], for which the 50% effective concentration (EC50) was < 50 nM.

Take `CC1(OC(=O)N2CC3COCC(C2)C3Oc2ncnc3c2cnn3-c2ccc(F)cc2F)CC1` (stereo not drawn) [Compound 45]: the concentration for a half-maximal effect (EC50) lay in the range of 100 to 500 nM.

For the compound `Cc1cccc(-n2ccc3c(OC4C5COCC4CN(C(=O)OC(C)(C)C)C5)ncnc32)c1C#N` (stereo not drawn) [Compound 23], the concentration giving a half-maximal response (EC50) was 50 to 100 nM.

Turning to `CC(C)(C)OC(=O)N1CC2COCC(C1)C2Oc1ncnc2c1ccn2-c1ccc(S(C)(=O)=O)cc1F` (stereo not drawn) [Compound 26], the half-maximal effective concentration (EC50) lay in the range of 100 to 500 nM.

For the compound `CCCOC(=O)N1CC2COCC(C1)C2Oc1ncnc2c1ccn2-c1ccc(C#N)cc1F` (stereo not drawn) [Compound 4], the EC50 is < 50 nM.

`CC(C)(C)OC(=O)N1CC2COCC(C1)C2Oc1ncnc2c1nnn2-c1ccc(C#N)cc1Cl` (stereo not drawn) [Compound 51]: the EC50 lay in the range of 100 to 500 nM.

Compound `CCCc1cnc(N2CC3COCC(C2)C3Oc2ncnc3c2ccn3-c2ccc(S(C)(=O)=O)cc2F)nc1` (stereo not drawn) [Compound 31] yielded a half-maximal effective concentration (EC50) of 50 to 100 nM.

On to `CC1OC(C)C2CN(C(=O)OC3(C)CC3)CC1C2Oc1ncnc2c1cnn2-c1ccc(C#N)cc1F` (stereo not drawn) [Compound 38], for which the EC50 was < 50 nM.

Take `Cc1c(F)ccc(-n2ccc3c(OC4C5COCC4CN(C(=O)OC(C)(C)C)C5)ncnc32)c1F` (stereo not drawn) [Compound 16]: the EC50 was < 50 nM.

For the compound `CC(C)OC(=O)N1CC2COCC(C1)C2Oc1ncnc2c1ncn2-c1ccc(C#N)cc1Cl` (stereo not drawn) [Compound 44], the 50% effective concentration (EC50) is 100 to 500 nM.

`CC1(OC(=O)N2CC3COCC(C2)C3Oc2ncnc3c2ccn3-c2ccc(S(C)(=O)=O)cc2F)CC1` (stereo not drawn) [Compound 28] yielded an EC50 of 100 to 500 nM.

Consider `CC1(OC(=O)N2CC3COCC(C2)C3Oc2ncnc3c2cnn3-c2ccc(-c3ncco3)cc2F)CC1` (stereo not drawn) [Compound 49], for which the EC50 fell in the range of 100 to 500 nM.

In turn, `CS(=O)(=O)c1ccc(-n2ccc3c(OC4C5COCC4CN(c4ncc(F)cn4)C5)ncnc32)c(F)c1` (stereo not drawn) [Compound 30] gave a half-maximal effective concentration (EC50) of 50 to 100 nM.
